Results as given in PMC5974751, “NKp44-Derived Peptide Binds Proliferating Cell Nuclear Antigen and Mediates Tumor Cell Death” (Frontiers in Immunology, 2018).

Key:
[1] = system: recombinant human PCNA (hPCNA); test: ELISA binding of biotinylated NKp44-derived peptides to plate-bound recombinant PCNA; conditions: biotinylated peptide, 0–7.24 µM (Figure 1A), streptavidin-HRP, TMB, O.D. 650 nm
Protocol: The pET-28 or pMAL-c2x vectors were used to produce soluble human PCNA (hPCNA) in Rosetta™ 2 (DE3) cells. Plasmids containing the mRNA sequence of PCNA or TL1A, APO-E3, HNF4 were transformed into Rosetta™ 2 cells via heat shock and grown on LB agar plates with kanamycin and chloramphenicol. A fresh colony of transformed bacteria was grown overnight in a 5 ml of LB with kanamycin and chloramphenicol an incubator shaker set to 37°C and at 250 rpm. The next day, bacteria cells were diluted 1:100 into a 500 ml of LB with kanamycin and chloramphenicol (to discard dead cells) and grown to an optical density (O.D.) of 0.6–0.8 (λ = 650 nm). Isopropyl β-D-1-thiogalactopyranoside (0.5 mM) was added for the induction of the PCNA production, and cells were further incubated for 4 h at 26°C (hPCNA). Cells were then centrifuged and the pellet was resuspended with solution A (20 mM Tris–HCl pH 8.0, 0.5 M NaCl, 20 mM imidazole), sonicated six times (20 s with 40 s intervals) and sieved through […] (Sartorius Stedim Biotech) filter before loaded on a His-tag or Amylose resin beads. Purification of His-tagged proteins was done using a Gravity-flow Column with “HisPur™ Ni-NTA Resin” Bead kit (Thermo-Scientific) (binding capacity ≤ 60 mg of a 28 kDa 6xHis-tagged protein from a bacterial source per milliliter of settled resin) according to Kits Protocol. Purification of MBP-tagged proteins was done using the Amylose resin beads (Catalog # E8035S).
To determine the interaction between NKp44-derived peptides and PCNA, ELISA plates were coated overnight at 4°C with 2 µg/ml of the recombinant PCNA or TLA1 ([49]), APO-E3 ([50]), HNF4 ([4]), rhFc, rhNKp44-hFc ([12]), rhNKp46-hFc ([51]), and PBS 1× (negative controls). Blocking buffer (PBS + 2.5% skim milk) was applied for 2 h at room temperature, after that the plates were incubated with 0–8 µM of biotinylated NKp44-derived peptides or PBS 1× (background control) for 2 h at room temperature. NKp44-derived peptides binding to PCNA was detected using horseradish peroxidase (HRP)-conjugated to streptavidin (1 h at 1:500 dilution). Following washing, TMB (DAKO, S1599) was added. O.D. was read at 650 nm (Thermo Electron Corporation Multiskan Spectrum). Between each step, wells were washed three times with PBS containing 0.05% Tween 20 (PBST).

[2] = system: NK92-44-1 cells (NK92 overexpressing NKp44-1 splice variant); test: IFNγ secretion assay of NK92-44-1 cells co-incubated with PANC-1 cells; assay type: cell-based, human; conditions: NK92-44-1 with HLA-I positive PANC-1, E:T 1:2; peptide 10 or 20 µg/well
Protocol: IFNγ secretion assay and ELISA assay were done as previously described ([11], [12]). NKp44-pep8, pep9, and pep10 (10 or 20 µg) were added to the IFNγ secretion assay.
Figure 1 Recognition of recombinant human PCNA (hPCNA) by NKp44-derived pep8 (NKp44-pep8). (A) ELISA assay representing the binding curve of biotinylated NKp44-derived pep5, pep8, and pep10 at a peptide concentration range of 0–7.24 µM to plate bond hPCNA. (B) IFNγ secretion assay of NK92-44-1 cells co-incubate with the HLA positive cell line PANC-1 (E:T ration of 1:2) in the presence of NKp44-pep8 (10 or 20 μg/well), NKp44-derived pep5 was used as negative control. Note that when we apply to NK92-44-1 pep8 (without target cells), activation of IFNγ secretion is minimal and less/similar to the observed activation when applying the pep5 negative control. (C) ELISA assay of blocking NKp44–proliferating cell nuclear antigen (PCNA) interaction via NKp44-pep8. NKp44-derived pep5 was used as a negative control. No peptide represents the maximal binding capacity of NKp44 to hPCNA. (D) ELISA assay showing the specific recognition of NKp44-pep8 (5 µg/ml) to hPCNA relative to TL1A, APO-E3, HNF4, NKp44-Ig, hNKp46-Ig, hFc. (E) ProteOn array showing the binding of hPCNA at protein concentration range of 0–250 nM to bond NKp44-pep8. 0 nM (X base-line), 15.6 nM (yellow), 31.2 (purple), 62.5 nM (green), 125 nM (blue), and 250 nM (red).

[3] = system: NKp44–PCNA interaction; test: ELISA blocking of NKp44-hFc interaction with PCNA; assay type: binding; conditions: peptide 0–10 µM, NKp44-hFc 80 nM, anti-human IgG-HRP, O.D. 650 nm, negative control pep5
Protocol: To determine the ability of NKp44-pep8 to block NKp44-hFc interaction with PCNA, ELISA plates were coated overnight at 4°C with 2 µg/ml of the recombinant PCNA, blocking buffer (PBS + 2.5% skim milk) was applied for 2 h at room temperature, after which the plates were incubated with 0–10 µM of biotinylated NKp44-derived peptides or PBS 1× (100 μl/well, background control) for 2 h at room temperature and then NKp44-hFc (80 nM, 20 µl/well) was added without washing for 1 h at room temperature. NKp44-hFc binding to PCNA was detected using HRP conjugated to antihuman IgG (1 h at 1:400 dilution 100 μl/well). Following washing, TMB (100 μl/well DAKO, S1599) was added. O.D. was read at 650 nm (Thermo Electron Corporation Multiskan Spectrum). Between each step, wells were washed three times with 200 μl/well PBS 1× containing 0.05% Tween 20 (PBST).

With “VTSSKPRTVAWTSRFTIWAA [pep10, NKp44-derived 20mer peptide, amino acids 67–86]” the “binding to recombinant hPCNA” value [1] was “also bound to PCNA but to a lesser extent as compared with pep8”, the “IFNγ secretion / NK92 cell function in presence of peptide” value [2] was “but not pep10 could block NKp44–PCNA interaction and upregulate NK92 cell function” and the “inhibition of rhNKp44 binding to PCNA” value [3] was “but not pep10 could block NKp44–PCNA interaction”.
